Data taken from US10407430B2, “Janus kinase 1 selective inhibitor and pharmaceutical use thereof” (YANG JI CHEMICAL CO., LTD., priority 2015, dated 2019).

Experiments:
Format in all cases: biochemical
Human JAK2 = molecular target: T1, Human JAK2 (Homo sapiens, UniProt O60674); assay: In-vitro kinase inhibition test, JAK2; details: compound at 1 uM; read-out: JAK2 kinase-phosphorylation inhibitory level (% inhibition)
T1 construct: purchased Millipore, Germany
Experimental: (§1) Human-derived JAK1, JAK2, JAK3 and TYK2 (Millipore, Germany) were used as kinases. Each kinase was diluted with an appropriate buffer as described below, and then mixed with reaction reagents.
(§2) 3-morpholinopropane-1-sulfonic acid (MOPS) and EDTA were dissolved in deionized water at a concentration of 20 mM and 1 mM, respectively, and then 100 μL of β-mercaptoethanol, 10 μL of Brij-35™, 5 mL of glycerol, and 100 mg of bovine serum albumin (BSA), each per 100 mL of the solution, were added to the solution, thereby preparing a dilution buffer for JAK2, JAK3, and TYK2.
(§3) Each compound was dissolved in a 100%-DMSO solution at a concentration of about 50 μM. This prepared solution was reacted with reaction reagents in each well of a 96-well plate until a final concentration of the compound reached 1 μM. A detailed experimental method for each kinase is as follows.
(§4) After reaction for about 40 minutes at room temperature, the reaction was stopped by adding 5 uL of a 3% (v/v) phosphoric acid solution.
(§5) The inhibitory levels (% inhibition) represent a percentage of reduction in phosphorylation activity in each test group with respect to the phosphorylation activity of a corresponding kinase in a negative control group lacking any of the compounds synthesized in the examples. % inhibition=[(Scintillation value of Test compound non-treatment group−Scintillation value of Test compound treatment group)/(Scintillation value of Test compound non-treatment group)]×100

Human JAK3 = molecular target: T2, Human JAK3 (Homo sapiens, UniProt P52333); assay: In-vitro kinase inhibition test, JAK3; details: compound at 1 uM; read-out: JAK3 kinase-phosphorylation inhibitory level (% inhibition)
T2 construct: purchased Millipore, Germany
T2 sequence (P52333 1-1124): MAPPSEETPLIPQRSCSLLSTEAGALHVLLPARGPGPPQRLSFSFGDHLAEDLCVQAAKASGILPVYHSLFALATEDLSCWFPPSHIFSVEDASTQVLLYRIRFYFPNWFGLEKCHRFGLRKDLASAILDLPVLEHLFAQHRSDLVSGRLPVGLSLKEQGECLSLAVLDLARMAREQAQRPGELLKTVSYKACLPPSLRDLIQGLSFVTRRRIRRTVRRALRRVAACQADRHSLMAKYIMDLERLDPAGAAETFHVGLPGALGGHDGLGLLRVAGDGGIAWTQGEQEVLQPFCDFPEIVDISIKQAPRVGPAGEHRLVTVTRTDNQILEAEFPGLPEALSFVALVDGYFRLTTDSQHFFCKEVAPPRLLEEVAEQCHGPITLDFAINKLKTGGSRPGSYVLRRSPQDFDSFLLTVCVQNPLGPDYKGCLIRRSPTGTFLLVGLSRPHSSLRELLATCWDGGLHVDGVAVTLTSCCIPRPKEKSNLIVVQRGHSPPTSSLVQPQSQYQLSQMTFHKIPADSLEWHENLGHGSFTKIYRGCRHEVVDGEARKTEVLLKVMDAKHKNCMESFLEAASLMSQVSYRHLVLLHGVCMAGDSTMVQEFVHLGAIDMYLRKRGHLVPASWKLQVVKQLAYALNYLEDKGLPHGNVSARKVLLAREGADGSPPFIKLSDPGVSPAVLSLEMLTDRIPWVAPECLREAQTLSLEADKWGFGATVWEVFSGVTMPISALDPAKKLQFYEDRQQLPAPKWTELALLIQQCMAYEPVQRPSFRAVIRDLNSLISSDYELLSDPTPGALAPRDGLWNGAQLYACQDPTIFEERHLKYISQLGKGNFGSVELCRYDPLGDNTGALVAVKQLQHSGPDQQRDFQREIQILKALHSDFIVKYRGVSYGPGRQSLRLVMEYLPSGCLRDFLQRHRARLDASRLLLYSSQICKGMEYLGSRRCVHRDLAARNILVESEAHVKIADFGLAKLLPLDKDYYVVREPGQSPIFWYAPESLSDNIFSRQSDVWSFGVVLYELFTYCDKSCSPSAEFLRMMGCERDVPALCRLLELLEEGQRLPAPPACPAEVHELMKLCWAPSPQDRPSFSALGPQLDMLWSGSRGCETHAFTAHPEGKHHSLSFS

Human JAK1 = molecular target: T3, Human JAK1 (Homo sapiens, UniProt P23458); assay: In-vitro kinase inhibition test, JAK1; details: for inhibition at 1 µM: compound at 1 uM, read-out: JAK1 kinase-phosphorylation inhibitory level (% inhibition); for JAK1/JAK2: ratio of % inhibition of JAK1 to JAK2 at 1 uM
T3 construct: purchased Millipore, Germany
T3 sequence (P23458 whole entry): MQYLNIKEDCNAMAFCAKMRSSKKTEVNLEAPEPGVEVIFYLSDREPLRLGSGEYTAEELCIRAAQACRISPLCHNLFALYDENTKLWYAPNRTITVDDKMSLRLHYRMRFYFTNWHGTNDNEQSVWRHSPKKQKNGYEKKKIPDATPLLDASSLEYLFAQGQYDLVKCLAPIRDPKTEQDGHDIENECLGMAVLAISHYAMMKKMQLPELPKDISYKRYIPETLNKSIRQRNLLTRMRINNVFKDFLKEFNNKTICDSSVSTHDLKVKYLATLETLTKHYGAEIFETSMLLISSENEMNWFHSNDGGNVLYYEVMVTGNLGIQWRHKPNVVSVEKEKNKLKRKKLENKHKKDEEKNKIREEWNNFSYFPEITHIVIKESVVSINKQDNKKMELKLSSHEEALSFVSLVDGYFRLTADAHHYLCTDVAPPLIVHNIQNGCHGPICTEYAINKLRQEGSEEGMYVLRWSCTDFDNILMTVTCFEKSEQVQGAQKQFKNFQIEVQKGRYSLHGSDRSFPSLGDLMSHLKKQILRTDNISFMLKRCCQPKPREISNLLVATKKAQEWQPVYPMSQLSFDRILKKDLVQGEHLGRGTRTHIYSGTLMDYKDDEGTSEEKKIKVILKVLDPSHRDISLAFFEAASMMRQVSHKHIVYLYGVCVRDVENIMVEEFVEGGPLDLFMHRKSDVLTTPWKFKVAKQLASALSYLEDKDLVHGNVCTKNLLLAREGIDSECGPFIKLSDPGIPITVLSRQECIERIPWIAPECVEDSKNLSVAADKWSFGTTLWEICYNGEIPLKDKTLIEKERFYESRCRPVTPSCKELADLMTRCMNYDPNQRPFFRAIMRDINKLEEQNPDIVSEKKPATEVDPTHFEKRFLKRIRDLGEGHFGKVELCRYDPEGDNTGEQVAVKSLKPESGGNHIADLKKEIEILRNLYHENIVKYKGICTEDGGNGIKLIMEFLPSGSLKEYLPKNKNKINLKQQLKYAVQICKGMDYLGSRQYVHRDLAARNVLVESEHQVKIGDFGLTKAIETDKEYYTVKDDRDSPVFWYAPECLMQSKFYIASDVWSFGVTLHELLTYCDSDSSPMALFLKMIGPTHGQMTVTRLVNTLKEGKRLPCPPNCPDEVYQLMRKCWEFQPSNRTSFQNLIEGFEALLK

Human TYK2 = molecular target: T4, Human TYK2 (Homo sapiens, UniProt P29597); assay: In-vitro kinase inhibition test, TYK2; details: compound at 1 uM; read-out: TYK2 kinase-phosphorylation inhibitory level (% inhibition)
T4 construct: purchased Millipore, Germany
T4 sequence (P29597 whole entry): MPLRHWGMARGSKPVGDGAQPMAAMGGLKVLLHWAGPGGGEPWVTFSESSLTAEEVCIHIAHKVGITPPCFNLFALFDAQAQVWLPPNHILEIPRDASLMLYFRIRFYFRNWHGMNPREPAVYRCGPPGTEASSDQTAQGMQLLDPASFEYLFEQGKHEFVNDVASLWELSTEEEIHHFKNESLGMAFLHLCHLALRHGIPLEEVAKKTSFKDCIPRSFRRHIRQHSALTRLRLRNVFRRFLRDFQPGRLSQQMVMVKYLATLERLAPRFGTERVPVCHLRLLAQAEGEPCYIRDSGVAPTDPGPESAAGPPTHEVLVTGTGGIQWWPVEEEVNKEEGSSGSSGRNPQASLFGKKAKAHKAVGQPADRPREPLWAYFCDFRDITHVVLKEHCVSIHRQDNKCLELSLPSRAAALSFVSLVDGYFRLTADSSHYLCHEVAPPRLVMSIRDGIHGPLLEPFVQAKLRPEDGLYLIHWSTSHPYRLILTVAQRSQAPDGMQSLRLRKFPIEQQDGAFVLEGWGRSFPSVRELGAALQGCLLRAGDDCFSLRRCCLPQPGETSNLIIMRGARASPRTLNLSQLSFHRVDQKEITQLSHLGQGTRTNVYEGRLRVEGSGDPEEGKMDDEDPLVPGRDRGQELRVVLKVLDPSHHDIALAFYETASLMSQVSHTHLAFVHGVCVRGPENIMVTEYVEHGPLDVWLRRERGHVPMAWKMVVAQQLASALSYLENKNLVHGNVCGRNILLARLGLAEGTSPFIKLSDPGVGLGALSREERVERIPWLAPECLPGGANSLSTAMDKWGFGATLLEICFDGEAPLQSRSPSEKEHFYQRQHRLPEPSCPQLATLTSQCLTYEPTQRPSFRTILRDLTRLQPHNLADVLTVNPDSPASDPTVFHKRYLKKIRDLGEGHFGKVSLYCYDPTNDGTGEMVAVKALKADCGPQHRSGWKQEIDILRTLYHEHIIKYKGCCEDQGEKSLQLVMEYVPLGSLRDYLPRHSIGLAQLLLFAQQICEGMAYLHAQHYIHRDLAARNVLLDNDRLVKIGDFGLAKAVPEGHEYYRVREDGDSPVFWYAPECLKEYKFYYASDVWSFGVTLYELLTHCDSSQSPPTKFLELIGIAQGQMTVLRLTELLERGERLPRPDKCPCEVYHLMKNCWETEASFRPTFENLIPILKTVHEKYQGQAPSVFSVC
Experimental: as §1, §2, §3, §4, §5

T1 sequence (O60674 whole entry): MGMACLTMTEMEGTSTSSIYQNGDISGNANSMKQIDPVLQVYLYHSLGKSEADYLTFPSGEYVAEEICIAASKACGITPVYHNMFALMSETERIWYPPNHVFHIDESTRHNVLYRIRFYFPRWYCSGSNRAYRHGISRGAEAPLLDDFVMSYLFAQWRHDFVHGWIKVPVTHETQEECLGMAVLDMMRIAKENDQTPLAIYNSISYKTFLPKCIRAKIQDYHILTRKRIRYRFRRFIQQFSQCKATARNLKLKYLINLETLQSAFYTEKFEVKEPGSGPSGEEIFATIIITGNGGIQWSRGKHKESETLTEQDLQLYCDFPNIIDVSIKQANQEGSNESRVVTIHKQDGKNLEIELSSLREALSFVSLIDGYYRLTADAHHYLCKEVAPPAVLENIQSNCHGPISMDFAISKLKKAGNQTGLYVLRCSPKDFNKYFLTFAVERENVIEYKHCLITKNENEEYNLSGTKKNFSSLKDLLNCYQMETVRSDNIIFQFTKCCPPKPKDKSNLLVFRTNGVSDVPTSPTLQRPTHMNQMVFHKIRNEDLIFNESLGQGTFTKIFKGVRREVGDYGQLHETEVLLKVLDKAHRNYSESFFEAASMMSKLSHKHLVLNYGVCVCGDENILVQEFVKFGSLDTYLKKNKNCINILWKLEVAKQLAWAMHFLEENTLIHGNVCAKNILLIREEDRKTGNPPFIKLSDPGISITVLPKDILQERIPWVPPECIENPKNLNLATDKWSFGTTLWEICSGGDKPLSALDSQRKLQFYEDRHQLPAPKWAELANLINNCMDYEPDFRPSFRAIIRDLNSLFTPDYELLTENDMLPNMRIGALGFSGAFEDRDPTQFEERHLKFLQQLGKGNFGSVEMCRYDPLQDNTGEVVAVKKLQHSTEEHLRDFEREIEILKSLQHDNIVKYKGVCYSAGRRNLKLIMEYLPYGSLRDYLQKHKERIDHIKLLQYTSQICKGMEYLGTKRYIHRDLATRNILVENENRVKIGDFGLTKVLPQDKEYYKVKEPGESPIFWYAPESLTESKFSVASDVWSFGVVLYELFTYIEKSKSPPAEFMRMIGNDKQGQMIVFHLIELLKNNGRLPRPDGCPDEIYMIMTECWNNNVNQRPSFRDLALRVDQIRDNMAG

inhibition at 1 µM (Human JAK2) | inhibition at 1 µM (Human JAK3) | inhibition at 1 µM (Human JAK1) | JAK1/JAK2 (Human JAK1) | inhibition at 1 µM (Human TYK2) | Compound
70% | 20% | 97% |  |  | CN(c1ncnc2[nH]ccc12)[C@@H]1CCN(C(=O)CC#N)C1 [Example 1, (R)-3-(3-(methyl(7H-pyrrolo[2,3-d]pyrimidine-4-yl)amino)pyrrolidine-1-yl)-3-oxopropanenitrile]
42% | 39% | 91% | 2.17 | 58% | CN(c1ncnc2[nH]ccc12)[C@@H]1CCN(CCC#N)C1 [Example 2, (R)-3-(3-(methyl(7H-pyrrolo[2,3-d]pyrimidine-4-yl)amino)pyrrolidine-1-yl)propanenitrile]
6% | 4% | 52% | ∞ | 8% | CCCCN1CC[C@@H](N(C)c2ncnc3[nH]ccc23)C1 [Example 3, (R)—N-(1-butylpyrrolidine-3-yl)-N-methyl-7H-pyrrolo[2,3-d]pyrimidine-4-amine]
79% | 33% | 98% | 1.24 | 86% | CN(c1ncnc2[nH]ccc12)[C@@H]1CCN(C(=O)CN=[N+]=[N-])C1 [Example 4, (R)-2-azido-1-(3-(methyl(7H-pyrrolo[2,3-d]pyrimidine-4-yl)amino)pyrrolidine-1-yl)ethane-1-one]
13% | 10% | 93% | 7.15 | 63% | CC(C)CC(=O)N1CC[C@@H](N(C)c2ncnc3[nH]ccc23)C1 [Example 5, (R)-3-methyl-1-(3-(methyl(7H-pyrrolo[2,3-d]pyrimidine-4-yl)amino)pyrrolidine-1-yl)butane-1-one]
9% | 9% | 93% | 10.33 | 34% | CC(C)COC(=O)N1CC[C@@H](N(C)c2ncnc3[nH]ccc23)C1 [Example 6, Isobutyl (R)-3-(methyl(7H-pyrrolo[2,3-d]pyrimidine-4-yl)amino)pyrrolidine-1-carboxylate]
68% | 42% | 97% | 1.43 | 72% | CN(c1ncnc2[nH]ccc12)[C@@H]1CCN(C(=O)Nc2ccccc2)C1 [Example 7, (R)-3-(methyl(7H-pyrrolo[2,3-d]pyrimidine-4-yl)amino)-N-phenylpyrrolidine-1-carboxamide]
7% | 21% | 91% | 13.00 | 59% | CN(c1ncnc2[nH]ccc12)[C@@H]1CCN(S(C)(=O)=O)C1 [Example 8, (R)—N-methyl-N-(1-(methylsulfonyl)pyrrolidine-3-yl)-7H-pyrrolo[2,3-d]pyrimidine-4-amine]
9% | 11% | 90% | 10.00 | 59% | CN(c1ncnc2[nH]ccc12)[C@@H]1CCN(S(=O)(=O)C(F)(F)F)C1 [Example 9, (R)—N-methyl-N-(1-((trifluoromethyl)sulfonyl)pyrrolidine-3-yl)-7H-pyrrolo[2,3-d]pyrimidine-4-amine]
27% | 22% | 94% | 3.48 | 74% | CCS(=O)(=O)N1CC[C@@H](N(C)c2ncnc3[nH]ccc23)C1 [Example 10, (R)—N-(1-(ethylsulfonyl)pyrrolidine-3-yl)-N-methyl-7H-pyrrolo[2,3-d]pyrimidine-4-amine]
62% | 20% | 95% | 1.55 | 78% | CCCS(=O)(=O)N1CC[C@@H](N(C)c2ncnc3[nH]ccc23)C1 [Example 11, (R)—N-methyl-N-(1-(propylsulfonyl)pyrrolidine-3-yl)-7H-pyrrolo[2,3-d]pyrimidine-4-amine]
11% | 13% | 86% | 7.82 | 47% | CC(C)S(=O)(=O)N1CC[C@@H](N(C)c2ncnc3[nH]ccc23)C1 [Example 12, (R)—N-(1-(isopropylsulfonyl)pyrrolidine-3-yl)-N-methyl-7H-pyrrolo[2,3-d]pyrimidine-4-amine]
9% | 4% | 52% | 5.78 | 17% | CN(c1ncnc2[nH]ccc12)[C@@H]1CCN(S(=O)(=O)c2cn(C)cn2)C1 [Example 13, (R)—N-methyl-N-(1-((1-methyl-1H-imidazole-4-yl)sulfonyl)pyrrolidine-3-yl)-7H-pyrrolo[2,3-d]pyrimidine-4-amine]
69% | 17% | 99% | 1.43 | 91% | CN(c1ncnc2[nH]ccc12)[C@@H]1CCN(S(=O)(=O)c2ccccc2)C1 [Example 14, (R)—N-methyl-N-(1-(phenylsulfonyl)pyrrolidine-3-yl)-7H-pyrrolo[2,3-d]pyrimidine-4-amine]
66% | 25% | 98% | 1.48 | 92% | CN(c1ncnc2[nH]ccc12)[C@@H]1CCN(S(=O)(=O)c2ccccc2F)C1 [Example 15, (R)—N-(1-((2-fluorophenyl)sulfonyl)pyrrolidine-3-yl)-N-methyl-7H-pyrrolo[2,3-d]pyrimidine-4-amine]
93% | 47% | 98% | 1.05 | 98% | CN(c1ncnc2[nH]ccc12)[C@@H]1CCN(S(=O)(=O)c2cccc(F)c2)C1 [Example 16, (R)—N-(1-((3-fluorophenyl)sulfonyl)pyrrolidine-3-yl)-N-methyl-7H-pyrrolo[2,3-d]pyrimidine-4-amine]
81% | 29% | 99% | 1.22 | 92% | CN(c1ncnc2[nH]ccc12)[C@@H]1CCN(S(=O)(=O)c2ccc(F)cc2)C1 [Example 17, (R)—N-(1-((4-fluorophenyl)sulfonyl)pyrrolidine-3-yl)-N-methyl-7H-pyrrolo[2,3-d]pyrimidine-4-amine]
73% | 22% | 97% | 1.33 | 81% | CN(c1ncnc2[nH]ccc12)[C@@H]1CCN(S(=O)(=O)c2ccccc2C#N)C1 [Example 18, (R)-2-((3-(methyl(7H-pyrrolo[2,3-d]pyrimidine-4-yl)amino)pyrrolidine-1-yl)sulfonyl)benzonitrile]
81% | 42% | 99% | 1.22 | 95% | CN(c1ncnc2[nH]ccc12)[C@@H]1CCN(S(=O)(=O)c2cccc(C#N)c2)C1 [Example 19, (R)-3-((3-(methyl(7H-pyrrolo[2,3-d]pyrimidine-4-yl)amino)pyrrolidine-1-yl)sulfonyl)benzonitrile]
46% | 9% | 97% | 2.11 | 84% | CN(c1ncnc2[nH]ccc12)[C@@H]1CCN(S(=O)(=O)c2ccc(C#N)cc2)C1 [Example 20, (R)-4-((3-(methyl(7H-pyrrolo[2,3-d]pyrimidine-4-yl)amino)pyrrolidine-1-yl)sulfonyl)benzonitrile]
-6% | 27% | 23% |  |  | CN(c1ncnc2[nH]ccc12)[C@H]1CCN(C(=O)CC#N)C1 [Example 31, (S)-3-(3-(methyl(7H-pyrrolo[2,3-d]pyrimidine-4-yl)amino)pyrrolidine-1-yl)-3-oxopropanenitrile]
